system: S. aureus biofilm; assay: In-vitro S. aureus biofilm model, treatment with oils of various polarity; type: cell-based; settings: oils with log P within vs outside 0.5 to 2.0

Molecule	antibacterial activity against biofilms (log reduction of bacteria vs. moist control, FIG. 1)
O=C(O)c1ccccc1 [Benzoic Acid]	exhibited some antibacterial activity against biofilms
OCc1ccccc1 [Benzyl Alcohol]	exhibited some antibacterial activity against biofilms
CCOC(C)=O [Ethyl Acetate]	exhibited some antibacterial activity against biofilms
CCOC(=O)c1cc(O)c(O)c(O)c1 [Ethyl Gallate]	exhibited some antibacterial activity against biofilms
CCCCCCCCCCCC(=O)OCC(O)CO (centres unmarked) [MONOMULS®, glyceryl monolaurate]	did not exhibit very much antimicrobial activity against biofilms
CCCOC(=O)c1cc(O)c(O)c(O)c1 [Propyl Gallate]	exhibited some antibacterial activity against biofilms
Oc1cccc(O)c1 [Resorcinol]	exhibited some antibacterial activity against biofilms
CC(=O)OCC(COC(C)=O)OC(C)=O [glyceryl triacetate]	did not exhibit very much antimicrobial activity against biofilms
CCCCCCCCCCCCCC(=O)OC(C)C [isopropyl myristate]	did not exhibit very much antimicrobial activity against biofilms
COC(=O)c1ccccc1 [methyl benzoate]	did not exhibit very much antimicrobial activity against biofilms
CCCCCCCC/C=C\CCCCCCCC(=O)O [oleic acid]	did not exhibit very much antimicrobial activity against biofilms
diethyl acetate	did not exhibit very much antimicrobial activity against biofilms

system: not given; assay: not given; settings: reference standards with known log P values used for HPLC calibration; cited from earlier work

Molecule	log P
O=C(C=Cc1ccccc1)OCc1ccccc1 [Benzyl cinnamate]	4.06
CCCCOC(=O)CCCCCCCCC(=O)OCCCC [Dibutyl sebacate]	6.3

Source: US11641856B2 (SMITH & NEPHEW, INC., priority 2015, dated 2023)
